# Where two headings read alike, the source gives them in different places.
# Key:
# [1] = test system: Mycobacterium smegmatis (MS); test: Effect of antibiotics and lysostaphin on growth/lysis of live M. smegmatis, % T at 650 nm; assay type: cell-based
# [2] = test system: ethanol-killed MTB; assay type: cell-based, M. tuberculosis; conditions: 375 μg/ml
# [3] = Imp 1 mg/ml, Lysostaphin 0 units/ml
# [4] = Rif 1 mg/ml, Lysostaphin 0 units/ml
compound,measurement,setting,value
"C[C@@H](O)[C@H]1C(=O)N2C(C(=O)O)=C(SCCNC=N)C[C@H]12.O [Imp, Imipenem monohydrate]","% Transmission (% T) change from baseline (negative equals growth, positive equals lysis/killing)",[1]; Imipenem 1.0 mg/ml without lysostaphin,+12.54 % T
same,% T 5 min,[1]; [3],78.00%
same,% T 3 hours,[1]; [3],82.67%
same,% T 20 hours,[1]; [3],90.54%
"CO[C@H]1/C=C/O[C@@]2(C)Oc3c(C)c(O)c4c(O)c(c(/C=N/N5CCN(C)CC5)c(O)c4c3C2=O)NC(=O)/C(C)=C\C=C\[C@H](C)[C@H](O)[C@@H](C)[C@@H](O)[C@@H](C)[C@H](OC(C)=O)[C@@H]1C [Rif, Rifampicin]",% T 5 min,[1]; [4],79.25%
same,% T 3 hours,[1]; [4],75.27%
same,% T 20 hours,[1]; [4],71.79%
"Lysostaphin: natural lysostaphin from S. staphylolyticus (Sigma Cat L7386), a 27 kD glycylglycine endopeptidase",% T 5 min,[1]; Lysostaphin alone 200 units/ml,77.34%
same,% T 3 hours,[1]; Lysostaphin alone 200 units/ml,71.54%
same,% T 20 hours,[1]; Lysostaphin alone 200 units/ml,45.47%
Recombinant Lysostaphin: recombinant simulans lysostaphin produced in E. coli (Sigma-Aldrich),% T at 3 min,[2]; bacterial dilution 1:2,86.268%
same,% T at 10 min,[2]; bacterial dilution 1:2,91.59%
same,% T at 20 min,[2]; bacterial dilution 1:2,92.587%
same,% T at 3 min,[2]; bacterial dilution 1:4,95.356%
same,% T at 10 min,[2]; bacterial dilution 1:4,77.33%
same,% T at 20 min,[2]; bacterial dilution 1:4,92.651%
same,% T at 3 min,[2]; bacterial dilution 1:8,97.308%
same,% T at 10 min,[2]; bacterial dilution 1:8,98.03%
same,% T at 20 min,[2]; bacterial dilution 1:8,98.186%

# From US11717561B2, “Multimodal antimicrobial therapy” (Longhorn Vaccines and Diagnostics, LLC, priority 2013, dated 2023)
